Data on 20 compounds can be found in patent US8063221B2, “Aminoquinolones as GSK-3 inhibitors” (Kyorin Pharmaceutical Co., Ltd., priority 2006, dated 2011).

The term IC50 denotes the concentration needed to halve the response being measured. By MIC is commonly meant the smallest concentration in the dilution series that meets the test's criterion for growth inhibition.

Converted amounts (≈) assume the structure as drawn. Like-named read-outs stand apart in the source and are kept apart here.

The target of assay [1] is T1, recombinant full-length human GSK3β (Homo sapiens, UniProt P49841).
T1 construct: recombinant full-length human GSK3β (Upstate); purchased Upstate
T1 sequence (P49841 whole entry): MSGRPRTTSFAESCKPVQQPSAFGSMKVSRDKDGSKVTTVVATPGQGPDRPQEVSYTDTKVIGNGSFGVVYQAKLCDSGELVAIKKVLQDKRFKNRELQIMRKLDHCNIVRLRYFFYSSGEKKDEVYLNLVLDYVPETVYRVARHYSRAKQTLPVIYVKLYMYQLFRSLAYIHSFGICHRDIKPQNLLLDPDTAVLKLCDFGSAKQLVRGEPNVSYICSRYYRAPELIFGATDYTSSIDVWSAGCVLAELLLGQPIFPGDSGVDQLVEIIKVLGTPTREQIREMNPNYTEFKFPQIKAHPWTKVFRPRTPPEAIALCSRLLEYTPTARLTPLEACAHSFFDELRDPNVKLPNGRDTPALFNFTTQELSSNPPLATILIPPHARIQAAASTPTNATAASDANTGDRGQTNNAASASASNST
In words: Luciferase-coupled cell-free GSK3β kinase assay. The format is biochemical. A digest of the protocol: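 GSK3β, 10-25 ng, was incubated with compound for 1 h at 30° C in MOPS pH 7.0 buffer containing 62.5 μM phospho-glycogen synthase peptide-2 and 5 μM ATP. Remaining ATP was read by KinaseGlo luminescence, and IC50 was fitted from % inhibition relative to maximal inhibition.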

Assay [2] deals with E. coli, ATCC8739. Briefly: Antibacterial activity (MIC), E. coli. The format is cell-based. As to conditions: Escherichia coli. An excerpt: (§1) As used herein, a minimum inhibitory concentration (MIC) for bacterial growth assay is the lowest level of a compound needed to cause an inhibition to bacterial growth in culture medium. In certain embodiments, the antibacterial activity of compounds herein, measured as MIC.
(§2) In certain embodiments, GSK3 inhibitors provided herein are substantially free of antibacterial activity or having very low antibacterial activity. The antibacterial activity can be measured by methods known in the art by estimating a minimum inhibitory concentration (MIC) for test compounds. A MIC is the lowest level of a compound needed to cause an inhibition to bacterial growth in a culture medium. […] (Clinical and Laboratory Standards Institute. Methods for Dilution Antimicrobial Susceptibility Tests for Bacteria That Grow Aerobically; Approved Standard-Sixth Edition: CLSI document […]. CLSI, Wayne, Pa. (2003))
(§3) Antibacterial activity for E. coli, ATCC8739 andS. aureus Smith expressed as MIC (μM) is provided as follows: […]

Assay [3] concerns S. aureus Smith. In words: Antibacterial activity (MIC), S. aureus. The format is cell-based. As to conditions: Staphylococcus aureus.
Excerpt: as §1, §2, §3

The mark [4] stands for this setting: ATCC8739, Table 1, E. coli ATCC8739, read-out: Antibacterial MIC (μM) E.Coli.
Setting [5] is: Table 1, read-out: Antibacterial MIC (μM) S. aureus Smith.
Where [6] appears, read: ATCC8739, Table 2, E. coli ATCC8739, read-out: Antimicrobial MIC [μM] E. Coli.
The mark [7] stands for this setting: Table 2, S. aureus Smith, read-out: Antimicrobial MIC [μM] S. aureus.

On to `Nc1c(F)c(NCCc2c[nH]c3ccccc23)c(F)c2c1c(=O)ccn2C1CC1` [compound 28], for which the IC50 in assay [1] (Table 1) lay in the range of 0.1 to 0.5 µM. The MIC in assay [2] (setting [4]) and in assay [3] (setting [5]) was more than 50 µM each time.
Consider `CC(C)(C)OC(=O)NCCNc1c(F)c(N)c2c(=O)ccn(C3CC3)c2c1F` [compound 29], for which the IC50 in assay [1] (Table 1) was 0.1 to 0.5 µM. Moreover, the MIC in assay [2] (setting [4]) and in assay [3] (setting [5]) was more than 50 µM throughout.
Regarding `C[C@@H]1COc2c(NCCNc3ccccn3)c(F)c(N)c3c(=O)c(C(=O)O)cn1c23` [compound 30], the IC50 in assay [1] (Table 2) fell in the range of 0.5 to 1 µM. The minimum inhibitory concentration (MIC) in assay [2] (setting [6]) and in assay [3] (setting [7]) was more than 50 µM in each case.
With `C[C@@H]1COc2c(NCCCn3cnc4ccccc43)c(F)c(N)c3c(=O)c(C(=O)O)cn1c23` [compound 32], the IC50 in assay [1] (Table 2) was in the range of 0.1 to 0.5 µM. The MIC in assay [2] (setting [6]) and in assay [3] (setting [7]) was 10 to 50 µM (≈ 4.51 to 22.6 µg/mL) in each case.
Turning to `CC1(C)COc2c(NCCNc3cccc4ccccc34)c(F)c(N)c3c(=O)c(C(=O)O)cn1c23` [compound 36], the IC50 in assay [1] (Table 2) was less than 0.1 µM. Besides, the MIC in assay [2] (setting [6]) and in assay [3] (setting [7]) was 10 to 50 µM (≈ 4.77 to 23.8 µg/mL) throughout.
For `CC1(C)COc2c(NCCCn3cnc4ccccc43)c(F)c(N)c3c(=O)c(C(=O)O)cn1c23` [compound 37], in assay [1] (Table 2), the IC50 was less than 0.1 µM. The minimal inhibitory concentration (MIC) in assay [2] (setting [6]) and in assay [3] (setting [7]) was 0.5 to 10 µM (≈ 0.233 to 4.65 µg/mL) each time.
`CC1(C)COc2c(NCCCc3ccccc3)c(F)c(N)c3c(=O)c(C(=O)O)cn1c23` [compound 38]: the IC50 in assay [1] (Table 2) was less than 0.1 µM. Moreover, the MIC in assay [2] (setting [6]) and in assay [3] (setting [7]) was 10 to 50 µM (≈ 4.25 to 21.3 µg/mL) each time.
With `CC1(C)COc2c(NCCc3ccncc3)c(F)c(N)c3c(=O)c(C(=O)O)cn1c23` [compound 39], in assay [1] (Table 2), the IC50 is 0.1 to 0.5 µM. For the same compound, the minimal inhibitory concentration (MIC) was more than 50 µM in assay [2] (setting [6]) and 10 to 50 µM (≈ 4.12 to 20.6 µg/mL) in assay [3] (setting [7]).
Turning to `CC(C)OCCCNc1c(F)c(N)c2c(=O)c(C(=O)O)cn3c2c1OCC3(C)C` [compound 40], the IC50 in assay [1] (Table 2) was 0.1 to 0.5 µM. Further, the MIC in assay [2] (setting [6]) and in assay [3] (setting [7]) was more than 50 µM in each case.
Take `CC1(C)COc2c(NCCCN3CCCC3=O)c(F)c(N)c3c(=O)c(C(=O)O)cn1c23` [compound 41]: in assay [1] (Table 2), the IC50 was less than 0.1 µM. Besides, the MIC in assay [2] (setting [6]) and in assay [3] (setting [7]) was more than 50 µM throughout.
`Nc1c(F)c(NCCNc2cccc3ccccc23)c(F)c2c1c(=O)c(C(=O)O)cn2C1CC1` [compound 43]: in assay [1] (Table 1), the half-maximal inhibitory concentration (IC50) is less than 0.1 µM. The MIC in assay [2] (setting [4]) and in assay [3] (setting [5]) was 0.5 to 10 µM (≈ 0.232 to 4.64 µg/mL) each time.
As to `Nc1c(F)c(NCCCc2ccccc2)c(F)c2c1c(=O)c(C(=O)O)cn2CCc1ccccc1` [compound 46], the IC50 in assay [1] (Table 1) was less than 0.1 µM. The MIC in assay [2] (setting [4]) and in assay [3] (setting [5]) was 10 to 50 µM (≈ 4.78 to 23.9 µg/mL) throughout.
For `Nc1c(F)c(NCCc2ccncc2)c(F)c2c1c(=O)c(C(=O)O)cn2CCc1ccccc1` [compound 47], the IC50 in assay [1] (Table 1) was less than 0.1 µM. Also, the MIC in assay [2] (setting [4]) and in assay [3] (setting [5]) was 10 to 50 µM (≈ 4.64 to 23.2 µg/mL) in each case.
As to `CC(C)C[C@H]1COc2c(NCCCn3cnc4ccccc43)c(F)c(N)c3c(=O)c(C(=O)O)cn1c23` [compound 48], in assay [1] (Table 2), the IC50 was less than 0.1 µM. For the same compound, the minimal inhibitory concentration (MIC) in assay [2] (setting [6]) and in assay [3] (setting [7]) was 10 to 50 µM (≈ 4.94 to 24.7 µg/mL) throughout.
For the compound `Nc1c(F)c(NCCCn2ccnc2)c(F)c2c1c(=O)c(C(=O)O)cn2CCc1ccccc1` [compound 48], in assay [1] (Table 1), the IC50 was less than 0.1 µM. The MIC in assay [2] (setting [4]) and in assay [3] (setting [5]) was more than 50 µM in each case.
In the case of `Nc1c(F)c(NCCNc2ccccn2)c(F)c2c1c(=O)c(C(=O)O)cn2CCc1ccccc1` [compound 49], in assay [1] (Table 1), the IC50 is 0.1 to 0.5 µM. Also, the MIC is 10 to 50 µM (≈ 4.79 to 24 µg/mL) in assay [2] (ATCC8739, read-out: Antibacterial MIC (μM) E.Coli) and 10 to 50 µM (≈ 4.79 to 24 µg/mL) in assay [3] (read-out: Antibacterial MIC (μM) S. aureus Smith).
Take `CC(C)OCCCNc1c(F)c(N)c2c(=O)c(C(=O)O)cn(CCc3ccccc3)c2c1F` [compound 50]: the IC50 in assay [1] (Table 1) lay in the range of 0.5 to 1 µM. The MIC in assay [2] (setting [4]) and in assay [3] (setting [5]) was 0.5 to 10 µM (≈ 0.23 to 4.59 µg/mL) throughout.
As for `CC(C)C[C@H]1COc2c(NCCCc3ccccc3)c(F)c(N)c3c(=O)c(C(=O)O)cn1c23` [compound 50], the concentration for half-maximal inhibition (IC50) in assay [1] (Table 2) is less than 0.1 µM. The MIC in assay [2] (setting [6]) and in assay [3] (setting [7]) was 10 to 50 µM (≈ 4.54 to 22.7 µg/mL) each time.
Take `CC(C)C[C@H]1COc2c(NCCNc3ccccn3)c(F)c(N)c3c(=O)c(C(=O)O)cn1c23` [compound 51]: in assay [1] (Table 2), the IC50 was less than 0.1 µM. In addition, the MIC in assay [2] (setting [6]) and in assay [3] (setting [7]) was 10 to 50 µM (≈ 4.55 to 22.8 µg/mL) throughout.
For the compound `Nc1c(F)c(NCCNc2cccc3ccccc23)c(F)c2c1c(=O)c(C(=O)O)cn2CCc1ccccc1` [compound 51], the IC50 in assay [1] (Table 1) lay within 0.1 to 0.5 µM. For the same compound, the MIC in assay [2] (setting [4]) and in assay [3] (setting [5]) was 10 to 50 µM (≈ 5.29 to 26.4 µg/mL) in each case.
